Data published in ChEMBL document CHEMBL2346513, “Synthesis and evaluation of methylsulfonylnitrobenzamides (MSNBAs) as inhibitors of the thyroid hormone receptor-coactivator interaction” (Bioorg Med Chem Lett, 2013).

Assays:
Vitamin D3 receptor = target: T1, Vitamin D3 receptor (Homo sapiens, UniProt P11473); test: Inhibition of VDR (unknown origin) interaction to SRC2-3 peptide by fluorescence polarization assay
T1 sequence (P11473 whole entry): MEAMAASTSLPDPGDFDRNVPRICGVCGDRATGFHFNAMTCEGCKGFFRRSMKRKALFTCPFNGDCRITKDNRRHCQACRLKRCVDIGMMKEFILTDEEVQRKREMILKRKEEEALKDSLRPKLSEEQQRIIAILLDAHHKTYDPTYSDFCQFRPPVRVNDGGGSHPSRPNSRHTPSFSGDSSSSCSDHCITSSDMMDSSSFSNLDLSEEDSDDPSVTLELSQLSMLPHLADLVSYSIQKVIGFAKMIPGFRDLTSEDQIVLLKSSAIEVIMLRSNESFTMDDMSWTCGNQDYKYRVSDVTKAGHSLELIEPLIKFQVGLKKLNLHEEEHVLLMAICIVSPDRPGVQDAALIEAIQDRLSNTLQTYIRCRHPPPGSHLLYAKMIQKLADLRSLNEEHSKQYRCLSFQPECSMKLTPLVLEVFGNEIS

HepG2 = test: Cytotoxicity against human HepG2 cells assessed as ATP level after 72 hrs by CellTiter-Glo assay; assay type: cell-based; details: HepG2, 72 h
[1] = target: T2, Thyroid hormone receptor alpha (Homo sapiens, UniProt P10827); test: Inhibition of TRalpha-LBD (unknown origin) interaction to texas red-labeled SRC2-2 peptide by fluorescence polarization assay
T2 sequence (P10827 whole entry): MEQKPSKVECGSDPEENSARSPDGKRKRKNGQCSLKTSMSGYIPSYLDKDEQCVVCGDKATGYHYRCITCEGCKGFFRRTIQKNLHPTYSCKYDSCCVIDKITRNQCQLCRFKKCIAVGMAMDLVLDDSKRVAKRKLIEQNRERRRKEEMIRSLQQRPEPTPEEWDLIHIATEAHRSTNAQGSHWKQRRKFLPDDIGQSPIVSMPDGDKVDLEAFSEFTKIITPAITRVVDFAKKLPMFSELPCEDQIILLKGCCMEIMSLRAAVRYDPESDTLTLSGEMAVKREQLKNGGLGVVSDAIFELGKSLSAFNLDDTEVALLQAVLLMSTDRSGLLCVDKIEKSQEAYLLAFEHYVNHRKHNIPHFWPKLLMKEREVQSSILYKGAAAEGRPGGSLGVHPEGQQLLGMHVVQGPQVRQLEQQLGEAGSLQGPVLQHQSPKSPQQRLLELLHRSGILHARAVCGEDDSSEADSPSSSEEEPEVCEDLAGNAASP

[2] = target: Thyroid hormone receptor (Homo sapiens) (UniProt P10827+P10828); test: Inhibition of thyroid hormone receptor-mediated PEPCK gene transcription in thyroid hormone treated human HepG2 cells by RT-PCR analysis; assay type: cell-based
[3] = target: T3, Thyroid hormone receptor beta (Homo sapiens, UniProt P10828); test: Inhibition of TRbeta-LBD (unknown origin) interaction to texas red-labeled SRC2-2 peptide by fluorescence polarization assay
T3 sequence (P10828 whole entry): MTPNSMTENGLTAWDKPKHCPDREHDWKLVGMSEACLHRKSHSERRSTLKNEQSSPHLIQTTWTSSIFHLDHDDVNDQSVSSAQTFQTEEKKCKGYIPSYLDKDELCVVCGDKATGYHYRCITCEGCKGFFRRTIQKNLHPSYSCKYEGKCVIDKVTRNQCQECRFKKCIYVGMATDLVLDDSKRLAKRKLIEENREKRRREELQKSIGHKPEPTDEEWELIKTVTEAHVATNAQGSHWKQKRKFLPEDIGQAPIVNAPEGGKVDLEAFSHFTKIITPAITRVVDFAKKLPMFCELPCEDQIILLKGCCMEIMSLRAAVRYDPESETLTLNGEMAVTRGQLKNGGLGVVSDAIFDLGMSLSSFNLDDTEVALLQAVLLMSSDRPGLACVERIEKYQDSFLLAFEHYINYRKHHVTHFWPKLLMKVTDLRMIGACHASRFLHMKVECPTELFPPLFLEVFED

Compound	IC50 (Vitamin D3 receptor) [µM]	EC50 (HepG2) [µM]	IC50 [1] [µM]	inhibition [2]	IC50 [3] [µM]
CS(=O)(=O)c1ccc(C(=O)NCC(=O)N(Cc2ccccc2)Cc2ccccc2)cc1[N+](=O)[O-]	> 60	11.9	1.7	Dose-dependent effect	3.6
CN(Cc1ccccc1F)C(=O)C1CCN(C(=O)c2ccc(S(C)(=O)=O)c([N+](=O)[O-])c2)CC1	> 60	> 27	> 60		> 60
CN1CCN(C(=O)CNC(=O)c2ccc(S(C)(=O)=O)c([N+](=O)[O-])c2)CC1	> 60	> 27	> 60		> 60
CN(CC(=O)N1CCN(c2ccccc2)CC1)C(=O)c1ccc(S(C)(=O)=O)c([N+](=O)[O-])c1	> 60	> 27	> 60		> 60
CN(Cc1cccc(F)c1)C(=O)C1CCN(C(=O)c2ccc(S(C)(=O)=O)c([N+](=O)[O-])c2)CC1	> 60	> 27	> 60		> 60
CS(=O)(=O)c1ccc(C(=O)NCCC(=O)N2Cc3ccccc3C2)cc1[N+](=O)[O-]	> 60	11.2	> 60		> 60
CN(Cc1ccccc1F)C(=O)CN(C)C(=O)c1ccc(S(C)(=O)=O)c([N+](=O)[O-])c1	> 60	> 27	> 60		> 60
CS(=O)(=O)c1ccc(C(=O)NCCC(=O)N2CCN(c3ccc(F)cc3)CC2)cc1[N+](=O)[O-]	> 60	> 27	> 60		> 60
CN(Cc1ccccc1)C(=O)CNC(=O)c1ccc(S(C)(=O)=O)c([N+](=O)[O-])c1	> 60	> 27	> 60		39
CCCN(C(=O)CNC(=O)c1ccc(S(C)(=O)=O)c([N+](=O)[O-])c1)c1ccccc1	> 60	> 27	1.9		6.6
CS(=O)(=O)c1ccc(C(=O)NCCC(=O)N2CCc3ccccc32)cc1[N+](=O)[O-]	> 60	> 27	> 60		> 60
CS(=O)(=O)c1ccc(C(=O)NCCCC(=O)N2CCc3ccccc3C2)cc1[N+](=O)[O-]	> 60	> 27	> 60		> 60
Cc1ccc(N2CCN(C(=O)CCCNC(=O)c3ccc(S(C)(=O)=O)c([N+](=O)[O-])c3)CC2)cc1	> 60	> 27	> 60		> 60
CC1CCN(C(=O)CCNC(=O)c2ccc(S(C)(=O)=O)c([N+](=O)[O-])c2)CC1	> 60	> 27	> 60		> 60
CCCN(C(=O)CN(C)C(=O)c1ccc(S(C)(=O)=O)c([N+](=O)[O-])c1)c1ccccc1	> 60	> 27	> 60		> 60
CS(=O)(=O)c1ccc(C(=O)N2CCC(C(=O)N3Cc4ccccc4C3)CC2)cc1[N+](=O)[O-]	> 60	> 27	> 60		> 60
CS(=O)(=O)c1ccc(C(=O)NCCCC(=O)N2CCC(c3ccccc3)CC2)cc1[N+](=O)[O-]	> 60	> 27	> 60		> 60

Compound	IC50 (Vitamin D3 receptor) [µM]	EC50 (HepG2) [µM]	IC50 [1] [µM]	inhibition [2]	IC50 [3] [µM]
CN(Cc1cccc(F)c1)C(=O)CN(C)C(=O)c1ccc(S(C)(=O)=O)c([N+](=O)[O-])c1	> 60	> 27	> 60		> 60
CCCN(C(=O)CCCNC(=O)c1ccc(S(C)(=O)=O)c([N+](=O)[O-])c1)c1ccccc1	> 60	> 27	> 60		> 60
CS(=O)(=O)c1ccc(C(=O)NCCCC(=O)N2CCN(c3ccc(F)cc3)CC2)cc1[N+](=O)[O-]	65	> 27	> 60		> 60
CN(Cc1ccccc1F)C(=O)CCNC(=O)c1ccc(S(C)(=O)=O)c([N+](=O)[O-])c1	> 60	> 27	> 60		> 60
CS(=O)(=O)c1ccc(C(=O)N2CCC(C(=O)N3CCc4ccccc43)CC2)cc1[N+](=O)[O-]	> 60	> 27	> 60		> 60
CS(=O)(=O)c1ccc(C(=O)NCCCC(=O)N2CCN(c3ccccc3F)CC2)cc1[N+](=O)[O-]	> 60	> 27	> 60		> 60
CN(CC(=O)N1CCN(c2ccccc2F)CC1)C(=O)c1ccc(S(C)(=O)=O)c([N+](=O)[O-])c1	> 60	10.3	> 60		> 60
CC1CCN(C(=O)C2CCN(C(=O)c3ccc(S(C)(=O)=O)c([N+](=O)[O-])c3)CC2)CC1	> 60	> 27	> 60		> 60
CS(=O)(=O)c1ccc(C(=O)NCC(=O)N2CCC(c3ccccc3)CC2)cc1[N+](=O)[O-]	37	> 27	44		> 60
CS(=O)(=O)c1ccc(C(=O)N2CCC(C(=O)N3CCCCC3)CC2)cc1[N+](=O)[O-]	> 60	> 27	> 60		> 60
CS(=O)(=O)c1ccc(C(=O)N2CCC(C(=O)N3CCN(c4ccc(F)cc4)CC3)CC2)cc1[N+](=O)[O-]	> 60	> 27	> 60		> 60
CC1Cc2ccccc2N1C(=O)CN(C)C(=O)c1ccc(S(C)(=O)=O)c([N+](=O)[O-])c1 (configuration not stated)	> 60	5.5	> 60		> 60
CN(Cc1ccccc1F)C(=O)CCCNC(=O)c1ccc(S(C)(=O)=O)c([N+](=O)[O-])c1	> 60	> 27	> 60		> 60
CS(=O)(=O)c1ccc(C(=O)NCCCC(=O)N2CCN(c3ccccc3)CC2)cc1[N+](=O)[O-]	> 60	> 27	> 60		> 60
CC1CCN(C(=O)CNC(=O)c2ccc(S(C)(=O)=O)c([N+](=O)[O-])c2)CC1	> 60	> 27	33		38
CS(=O)(=O)c1ccc(C(=O)N2CCC(C(=O)NC34CC5CC(CC(C5)C3)C4)CC2)cc1[N+](=O)[O-]	> 60	> 27	> 60		> 60
CN(Cc1ccccc1)C(=O)CCCNC(=O)c1ccc(S(C)(=O)=O)c([N+](=O)[O-])c1	> 60	> 27	> 60		> 60
